# Data: patent publication US20260234115A1, “LIPID COMPOUNDS, COMPOSITIONS, AND USES THEREOF” (Liberate Bio, Inc., priority 2023, published 2026)
# Marks after values point to notes of the source that are not given here.
# Key:
# [1] = Dynamic light scattering: LNP particle size and PDI; format: physicochemical; details: for PDI N/P:6 / Size (nm) N/P:6: LNP
# Procedure, shortened: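 The LNPs were made by microfluidic mixing of the lipids in ethanol with mRNA in pH 4.0 citrate, then dialyzed into PBS pH 7.4. They were diluted in PBS pH 7.4, and particle size and PDI were measured by dynamic light scattering.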
# mouse organs = experiment: In vivo activity screening in mice: organ mean total flux (p/s) of luciferase activity after injection of F2 LNP pools (Table 6, FIG. 7A-7C); details: luciferase mRNA
# Procedure, shortened: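 C57BL/6J mice given one tail-vein injection of pooled Formulation F2 LNPs carrying firefly luciferase mRNA (0.25-3 mg/kg) in PBS. At 4-6 h, s.c. D-luciferin given; organs imaged ex vivo by IVIS within 10-15 min, after saline cardiac perfusion. Mean total flux (p/s) per organ ROI.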
# [2] = Plate-based fluorescence (RiboGreen) assay: nucleic acid cargo content and encapsulation efficiency of LNPs; format: physicochemical; details: for EE (%) N/P:6: LNP
# Procedure, shortened: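 LNPs made by microfluidic mixing of ethanolic lipids with mRNA in pH 4.0 citrate, dialyzed into PBS pH 7.4. Cargo quantified by RiboGreen fluorescence against a standard curve: Triton-lysed samples give total, TE-only samples give free cargo; encapsulation efficiency from their ratio.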
# [3] = LNP compositions for in vivo mouse study, four formulations (F1-F4) pooled, or pools of four compounds
# [4] = LNP compositions for Formulation F2 Study
structure (smiles),measurement,setting,value
"CCCCCCCC/C=C\CCCCCCCC(=O)OCC(COC(=O)CCCCCCC/C=C\CCCCCCCC)(COC(=O)CCC(CCCCCC)OC(=O)NCCN1CCCC1)COC(=O)CC12CC3CC(CC(C3)C1)C2 (centres unmarked) [Compound 3, [2-[[2-(1-adamantyl)acetyl]oxymethyl]-2-[[(Z)-octadec-9-enoyl]oxymethyl]-3-[4-(2-pyrrolidin-1ylethylcarbamoyloxy)decanoyloxy]propyl](Z)-octadec-9-enoate]",Particle Size (nm),"[1]; LNP compositions for in vivo mouse study, four formulations (F1-F4) of the lipid compound pooled, or pools of four compounds (sixteen compositions)",89.1 nm
same,PDI,[1]; [3],0.08
same,PDI N/P:6,"[1]; Formulation F1, N/P 6",0.09
same,Size (nm) N/P:6,"[1]; Formulation F1, N/P 6",74 ± 1 nm
same,PDI N/P:6,"[1]; Formulation F2, N/P 6",0.01
same,Size (nm) N/P:6,"[1]; Formulation F2, N/P 6",92 ± 1 nm
same,PDI N/P:6,"[1]; Formulation F3, N/P 6",0.07
same,Size (nm) N/P:6,"[1]; Formulation F3, N/P 6",102 ± 1 nm
same,PDI N/P:6,"[1]; Formulation F4, N/P 6",0.14
same,Size (nm) N/P:6,"[1]; Formulation F4, N/P 6",73 ± 1 nm
same,Organ Mean Total Flux Femur,"mouse organs; Mouse 1, dose 0.3 mg/kg",1.3 p/s (×10^6)
same,Organ Mean Total Flux Heart,"mouse organs; Mouse 1, dose 0.3 mg/kg",0.1 p/s (×10^6)
same,Organ Mean Total Flux Kidney,"mouse organs; Mouse 1, dose 0.3 mg/kg",0.1 p/s (×10^6)
same,Organ Mean Total Flux Liver,"mouse organs; Mouse 1, dose 0.3 mg/kg",29.1 p/s (×10^6)
same,Organ Mean Total Flux Lung,"mouse organs; Mouse 1, dose 0.3 mg/kg",0.7 p/s (×10^6)
same,Organ Mean Total Flux Muscle,"mouse organs; Mouse 1, dose 0.3 mg/kg",0.5 p/s (×10^6)
same,Organ Mean Total Flux Pancreas,"mouse organs; Mouse 1, dose 0.3 mg/kg",0.2 p/s (×10^6)
same,Organ Mean Total Flux Spleen,"mouse organs; Mouse 1, dose 0.3 mg/kg",1.4 p/s (×10^6)
same,EE %,[2]; [3],96%
same,mRNA Content,[2]; [3],83 µg/mL
same,EE (%) N/P:6,"[2]; Formulation F1, N/P 6",98%
same,EE (%) N/P:6,"[2]; Formulation F2, N/P 6",99%
same,EE (%) N/P:6,"[2]; Formulation F3, N/P 6",98%
same,EE (%) N/P:6,"[2]; Formulation F4, N/P 6",98%
"CCCCC/C=C\C/C=C\CCCCCCCCC(CCCCCCCC/C=C\C/C=C\CCCCC)OC(=O)CCCN(C)C [MC3, reference compound]",PDI,[1]; [4],0.098
same,Particle Size (nm),[1]; [4],87.8 nm
same,Organ Mean Total Flux Femur,"mouse organs; Mouse 1, dose 0.3 mg/kg",8.5 p/s (×10^6)
same,Organ Mean Total Flux Heart,"mouse organs; Mouse 1, dose 0.3 mg/kg",2.8 p/s (×10^6)
same,Organ Mean Total Flux Kidney,"mouse organs; Mouse 1, dose 0.3 mg/kg",1.9 p/s (×10^6)
same,Organ Mean Total Flux Liver,"mouse organs; Mouse 1, dose 0.3 mg/kg",6896 p/s (×10^6)
same,Organ Mean Total Flux Lung,"mouse organs; Mouse 1, dose 0.3 mg/kg",17.2 p/s (×10^6)
same,Organ Mean Total Flux Muscle,"mouse organs; Mouse 1, dose 0.3 mg/kg",7.5 p/s (×10^6)
same,Organ Mean Total Flux Pancreas,"mouse organs; Mouse 1, dose 0.3 mg/kg",2.6 p/s (×10^6)
same,Organ Mean Total Flux Spleen,"mouse organs; Mouse 1, dose 0.3 mg/kg",22.3 p/s (×10^6)
same,Organ Mean Total Flux Femur,"mouse organs; Mouse 2, dose 1.0 mg/kg",9.9 p/s (×10^6)
same,Organ Mean Total Flux Heart,"mouse organs; Mouse 2, dose 1.0 mg/kg",17.0 p/s (×10^6)
same,Organ Mean Total Flux Kidney,"mouse organs; Mouse 2, dose 1.0 mg/kg",16.6 p/s (×10^6)
same,Organ Mean Total Flux Liver,"mouse organs; Mouse 2, dose 1.0 mg/kg",15500 p/s (×10^6)
same,Organ Mean Total Flux Lung,"mouse organs; Mouse 2, dose 1.0 mg/kg",60.5 p/s (×10^6)
same,Organ Mean Total Flux Muscle,"mouse organs; Mouse 2, dose 1.0 mg/kg",16.6 p/s (×10^6)
same,Organ Mean Total Flux Pancreas,"mouse organs; Mouse 2, dose 1.0 mg/kg",7.4 p/s (×10^6)
same,Organ Mean Total Flux Spleen,"mouse organs; Mouse 2, dose 1.0 mg/kg",23.0 p/s (×10^6)
same,Organ Mean Total Flux Femur,"mouse organs; Mouse 3, dose 1.0 mg/kg",6.9 p/s (×10^6)
same,Organ Mean Total Flux Heart,"mouse organs; Mouse 3, dose 1.0 mg/kg",8.5 p/s (×10^6)
same,Organ Mean Total Flux Kidney,"mouse organs; Mouse 3, dose 1.0 mg/kg",7.3 p/s (×10^6)
same,Organ Mean Total Flux Liver,"mouse organs; Mouse 3, dose 1.0 mg/kg",9707 p/s (×10^6)
same,Organ Mean Total Flux Lung,"mouse organs; Mouse 3, dose 1.0 mg/kg",106.4 p/s (×10^6)
same,Organ Mean Total Flux Muscle,"mouse organs; Mouse 3, dose 1.0 mg/kg",23.6 p/s (×10^6)
same,Organ Mean Total Flux Pancreas,"mouse organs; Mouse 3, dose 1.0 mg/kg",2.7 p/s (×10^6)
same,Organ Mean Total Flux Spleen,"mouse organs; Mouse 3, dose 1.0 mg/kg",22.8 p/s (×10^6)
same,Organ Mean Total Flux Femur,"mouse organs; Mouse 5, dose 0.5 mg/kg",4.8 p/s (×10^6)
same,Organ Mean Total Flux Heart,"mouse organs; Mouse 5, dose 0.5 mg/kg",5.7 p/s (×10^6)
same,Organ Mean Total Flux Kidney,"mouse organs; Mouse 5, dose 0.5 mg/kg",18.6 p/s (×10^6)
same,Organ Mean Total Flux Liver,"mouse organs; Mouse 5, dose 0.5 mg/kg",5667 p/s (×10^6)
same,Organ Mean Total Flux Lung,"mouse organs; Mouse 5, dose 0.5 mg/kg",34.5 p/s (×10^6)
same,Organ Mean Total Flux Muscle,"mouse organs; Mouse 5, dose 0.5 mg/kg",10.0 p/s (×10^6)
same,Organ Mean Total Flux Pancreas,"mouse organs; Mouse 5, dose 0.5 mg/kg",1.9 p/s (×10^6)
same,Organ Mean Total Flux Spleen,"mouse organs; Mouse 5, dose 0.5 mg/kg",17.6 p/s (×10^6)
same,Organ Mean Total Flux Femur,"mouse organs; Mouse 6, dose 0.5 mg/kg",3.3 p/s (×10^6)
same,Organ Mean Total Flux Heart,"mouse organs; Mouse 6, dose 0.5 mg/kg",5.2 p/s (×10^6)
same,Organ Mean Total Flux Kidney,"mouse organs; Mouse 6, dose 0.5 mg/kg",3.9 p/s (×10^6)
same,Organ Mean Total Flux Liver,"mouse organs; Mouse 6, dose 0.5 mg/kg",4796 p/s (×10^6)
same,Organ Mean Total Flux Lung,"mouse organs; Mouse 6, dose 0.5 mg/kg",28.6 p/s (×10^6)
same,Organ Mean Total Flux Muscle,"mouse organs; Mouse 6, dose 0.5 mg/kg",8.2 p/s (×10^6)
same,Organ Mean Total Flux Pancreas,"mouse organs; Mouse 6, dose 0.5 mg/kg",3.6 p/s (×10^6)
same,Organ Mean Total Flux Spleen,"mouse organs; Mouse 6, dose 0.5 mg/kg",11.7 p/s (×10^6)
same,Organ Mean Total Flux Femur,"mouse organs; Mouse 9, dose 0.5 mg/kg",3.8 p/s (×10^6)
same,Organ Mean Total Flux Heart,"mouse organs; Mouse 9, dose 0.5 mg/kg",4.1 p/s (×10^6)
same,Organ Mean Total Flux Kidney,"mouse organs; Mouse 9, dose 0.5 mg/kg",2.1 p/s (×10^6)
same,Organ Mean Total Flux Liver,"mouse organs; Mouse 9, dose 0.5 mg/kg",3903 p/s (×10^6)
same,Organ Mean Total Flux Lung,"mouse organs; Mouse 9, dose 0.5 mg/kg",12.7 p/s (×10^6)
same,Organ Mean Total Flux Muscle,"mouse organs; Mouse 9, dose 0.5 mg/kg",5.6 p/s (×10^6)
same,Organ Mean Total Flux Pancreas,"mouse organs; Mouse 9, dose 0.5 mg/kg",1.1 p/s (×10^6)
same,Organ Mean Total Flux Spleen,"mouse organs; Mouse 9, dose 0.5 mg/kg",5.4 p/s (×10^6)
same,Organ Mean Total Flux Femur,"mouse organs; Mouse 11, dose 0.5 mg/kg",2.2 p/s (×10^6)
same,Organ Mean Total Flux Heart,"mouse organs; Mouse 11, dose 0.5 mg/kg",2.9 p/s (×10^6)
same,Organ Mean Total Flux Kidney,"mouse organs; Mouse 11, dose 0.5 mg/kg",1.0 p/s (×10^6)
same,Organ Mean Total Flux Liver,"mouse organs; Mouse 11, dose 0.5 mg/kg",2603 p/s (×10^6)
same,Organ Mean Total Flux Lung,"mouse organs; Mouse 11, dose 0.5 mg/kg",12.1 p/s (×10^6)
same,Organ Mean Total Flux Muscle,"mouse organs; Mouse 11, dose 0.5 mg/kg",2.7 p/s (×10^6)
same,Organ Mean Total Flux Pancreas,"mouse organs; Mouse 11, dose 0.5 mg/kg",0.7 p/s (×10^6)
same,Organ Mean Total Flux Spleen,"mouse organs; Mouse 11, dose 0.5 mg/kg",4.0 p/s (×10^6)
same,Organ Mean Total Flux Femur,"mouse organs; Mouse 12, dose 0.5 mg/kg",5.8 p/s (×10^6)
same,Organ Mean Total Flux Heart,"mouse organs; Mouse 12, dose 0.5 mg/kg",2.4 p/s (×10^6)
same,Organ Mean Total Flux Kidney,"mouse organs; Mouse 12, dose 0.5 mg/kg",53.9 p/s (×10^6)
same,Organ Mean Total Flux Liver,"mouse organs; Mouse 12, dose 0.5 mg/kg",2307 p/s (×10^6)
same,Organ Mean Total Flux Lung,"mouse organs; Mouse 12, dose 0.5 mg/kg",13.7 p/s (×10^6)
same,Organ Mean Total Flux Muscle,"mouse organs; Mouse 12, dose 0.5 mg/kg",4.1 p/s (×10^6)
same,Organ Mean Total Flux Pancreas,"mouse organs; Mouse 12, dose 0.5 mg/kg",9.6 p/s (×10^6)
same,Organ Mean Total Flux Spleen,"mouse organs; Mouse 12, dose 0.5 mg/kg",8.6 p/s (×10^6)
same,Organ Mean Total Flux Femur,"mouse organs; Mouse 13, dose 0.5 mg/kg",2.7 p/s (×10^6)
same,Organ Mean Total Flux Heart,"mouse organs; Mouse 13, dose 0.5 mg/kg",5.0 p/s (×10^6)
same,Organ Mean Total Flux Kidney,"mouse organs; Mouse 13, dose 0.5 mg/kg",0.9 p/s (×10^6)
same,Organ Mean Total Flux Liver,"mouse organs; Mouse 13, dose 0.5 mg/kg",1767 p/s (×10^6)
same,Organ Mean Total Flux Lung,"mouse organs; Mouse 13, dose 0.5 mg/kg",8.3 p/s (×10^6)
same,Organ Mean Total Flux Muscle,"mouse organs; Mouse 13, dose 0.5 mg/kg",2.8 p/s (×10^6)
same,Organ Mean Total Flux Pancreas,"mouse organs; Mouse 13, dose 0.5 mg/kg",0.8 p/s (×10^6)
same,Organ Mean Total Flux Spleen,"mouse organs; Mouse 13, dose 0.5 mg/kg",5.7 p/s (×10^6)
same,Organ Mean Total Flux Femur,"mouse organs; Mouse 14, dose 0.5 mg/kg",2.2 p/s (×10^6)
same,Organ Mean Total Flux Heart,"mouse organs; Mouse 14, dose 0.5 mg/kg",4.4 p/s (×10^6)
same,Organ Mean Total Flux Kidney,"mouse organs; Mouse 14, dose 0.5 mg/kg",26.8 p/s (×10^6)
same,Organ Mean Total Flux Liver,"mouse organs; Mouse 14, dose 0.5 mg/kg",2037 p/s (×10^6)
same,Organ Mean Total Flux Lung,"mouse organs; Mouse 14, dose 0.5 mg/kg",19.3 p/s (×10^6)
same,Organ Mean Total Flux Muscle,"mouse organs; Mouse 14, dose 0.5 mg/kg",5.7 p/s (×10^6)
same,Organ Mean Total Flux Pancreas,"mouse organs; Mouse 14, dose 0.5 mg/kg",1.2 p/s (×10^6)
same,Organ Mean Total Flux Spleen,"mouse organs; Mouse 14, dose 0.5 mg/kg",8.5 p/s (×10^6)
same,EE %,[2]; [4],98%
